Experimental data published in PMC4114983, “The “Gate Keeper” Role of Trp222 Determines the Enantiopreference of Diketoreductase toward 2-Chloro-1-Phenylethanone” (PLoS ONE, 2014).
Read-outs that look alike come from different tables or passages of the source.

Key:
diketoreductase (DKR) [1] = molecular target: T1, diketoreductase (DKR) (Acinetobacter baylyi, UniProt B1P3E1, W222Y); assay: intrinsic Trp fluorescence quenching, quadratic fit; type: binding
T1 construct: full-length in pET22b(+), E. coli BL21(DE3); DEAE and Sephadex G-100 purified; homodimer, 283 residues per subunit
T1 sequence (B1P3E1 entry or part of it W222Y): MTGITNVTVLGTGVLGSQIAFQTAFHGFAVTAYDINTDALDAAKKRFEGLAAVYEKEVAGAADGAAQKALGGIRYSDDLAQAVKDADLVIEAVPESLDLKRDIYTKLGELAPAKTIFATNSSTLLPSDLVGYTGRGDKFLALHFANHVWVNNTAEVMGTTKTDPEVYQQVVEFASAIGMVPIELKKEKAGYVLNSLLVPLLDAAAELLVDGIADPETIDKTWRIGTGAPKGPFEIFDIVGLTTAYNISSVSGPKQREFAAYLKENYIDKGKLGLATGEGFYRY
From the text: (§1) intrinsic Trp fluorescence quenching, quadratic fit on WT-DKR; diketoreductase (DKR)

diketoreductase (DKR) [2] = molecular target: T2, diketoreductase (DKR) (Acinetobacter baylyi, UniProt B1P3E1, W222F); assay: as above; type: binding
T2 construct: full-length in pET22b(+), E. coli BL21(DE3); DEAE and Sephadex G-100 purified; homodimer, 283 residues per subunit
T2 sequence (B1P3E1 entry or part of it W222F): as the sequence (B1P3E1 entry or part of it W222Y) above
From the text: as §1

diketoreductase (DKR) [3] = molecular target: T3, diketoreductase (DKR) (Acinetobacter baylyi, UniProt B1P3E1, W222V); assay: as above; type: binding
T3 construct: full-length in pET22b(+), E. coli BL21(DE3); DEAE and Sephadex G-100 purified; homodimer, 283 residues per subunit
T3 sequence (B1P3E1 entry or part of it W222V): as the sequence (B1P3E1 entry or part of it W222Y) above
From the text: as §1

diketoreductase (DKR) [4] = molecular target: T4, diketoreductase (DKR) (Acinetobacter baylyi, UniProt B1P3E1, W222M); assay: as above; type: binding
T4 construct: full-length in pET22b(+), E. coli BL21(DE3); DEAE and Sephadex G-100 purified; homodimer, 283 residues per subunit
T4 sequence (B1P3E1 entry or part of it W222M): as the sequence (B1P3E1 entry or part of it W222Y) above
From the text: as §1

[5] = molecular target: T5, WT-DKR; diketoreductase (DKR) (Acinetobacter baylyi, UniProt B1P3E1); assay: as above; type: binding
T5 construct: full-length in pET22b(+), E. coli BL21(DE3); DEAE and Sephadex G-100 purified; homodimer, 283 residues per subunit
From the text: as §1
Target sequence in this assay (B1P3E1 entry or part of it W222L): as the sequence (B1P3E1 entry or part of it W222Y) above

diketoreductase (DKR) [6] = molecular target: T1, diketoreductase (DKR); assay: NADH oxidation, absorbance; type: biochemical; details: 0.15 mM NADH constant, potassium phosphate pH 6.0; average of two measurements
From the text: (§2) NADH oxidation, absorbance on WT-DKR; diketoreductase (DKR)

[7] = molecular target: T6, WT-DKR; diketoreductase (DKR) (Acinetobacter baylyi, UniProt B1P3E1, W222F); assay: NADH oxidation, absorbance; type: biochemical; details: 0.15 mM NADH constant, potassium phosphate pH 6.0; average of two measurements
T6 construct: full-length in pET22b(+), E. coli BL21(DE3); DEAE and Sephadex G-100 purified; homodimer, 283 residues per subunit
T6 sequence (B1P3E1 entry or part of it W222F): as the sequence (B1P3E1 entry or part of it W222Y) above
From the text: as §2

[8] = molecular target: T7, WT-DKR; diketoreductase (DKR) (Acinetobacter baylyi, UniProt B1P3E1, W222M); assay: NADH oxidation, absorbance; type: biochemical; details: 0.15 mM NADH constant, potassium phosphate pH 6.0; average of two measurements
T7 construct: full-length in pET22b(+), E. coli BL21(DE3); DEAE and Sephadex G-100 purified; homodimer, 283 residues per subunit
T7 sequence (B1P3E1 entry or part of it W222M): as the sequence (B1P3E1 entry or part of it W222Y) above
From the text: as §2

diketoreductase (DKR) [9] = molecular target: T3, diketoreductase (DKR); assay: NADH oxidation, absorbance; type: biochemical; details: 0.15 mM NADH constant, potassium phosphate pH 6.0; average of two measurements
From the text: as §2

[10] = molecular target: T5, WT-DKR; diketoreductase (DKR); assay: NADH oxidation, absorbance; type: biochemical; details: 0.15 mM NADH constant, potassium phosphate pH 6.0; average of two measurements
From the text: as §2
Target sequence in this assay (B1P3E1 entry or part of it): as the sequence (B1P3E1 entry or part of it W222Y) above

diketoreductase (DKR) [11] = molecular target: T8, diketoreductase (DKR) (Acinetobacter baylyi, UniProt B1P3E1, W222L); assay: NADH oxidation, absorbance; type: biochemical; details: 0.15 mM NADH constant, potassium phosphate pH 6.0; average of two measurements
T8 construct: full-length in pET22b(+), E. coli BL21(DE3); DEAE and Sephadex G-100 purified; homodimer, 283 residues per subunit
T8 sequence (B1P3E1 entry or part of it W222L): as the sequence (B1P3E1 entry or part of it W222Y) above
From the text: as §2

[12] = molecular target: T5, WT-DKR; diketoreductase (DKR); assay: intrinsic Trp fluorescence quenching, quadratic fit; type: binding; remark: listed apart in the source
From the text: as §1
Target sequence in this assay (B1P3E1 entry or part of it): as the sequence (B1P3E1 entry or part of it W222Y) above

In the case of O=C(CCl)c1ccccc1 [2-chloro-1-phenylethanone], the Kd (diketoreductase (DKR) [1]) is reported as 455 µM, the Kd (diketoreductase (DKR) [2]) is reported as 484 µM and the Kd (diketoreductase (DKR) [3]) is reported as 507 µM. For the same molecule, the Kd (diketoreductase (DKR) [4]) was 457 µM, the Kd [5] was 458 µM and the Km (diketoreductase (DKR) [6]) was 2510 µM. For the same molecule, the Km [7] was 4180 µM, the Km [8] was 2800 µM and the Km (diketoreductase (DKR) [9]) was 302 µM. It also gave a Km [10] of 1130 µM, a Km (diketoreductase (DKR) [11]) of 3160 µM and a Kd [12] of 460 µM.
